# Literature values as cited in patent US11369672B2 (priority 2012, dated 2022).
# System: Mtb H37Rv
structure (smiles),measurement,value
"CO[C@H]1/C=C/O[C@@]2(C)Oc3c(C)c(O)c4c(O)c(c(/C=N/N5CCN(C)CC5)c(O)c4c3C2=O)NC(=O)/C(C)=C\C=C\[C@H](C)[C@H](O)[C@@H](C)[C@@H](O)[C@@H](C)[C@H](OC(C)=O)[C@@H]1C [RIF, rifampin]",minimum inhibitory concentration,0.25 µM
